Results taken from patent US11553712B2 (priority 2010, dated 2023).
Read-outs that look alike come from different tables or passages of the source. Marks after values point to notes of the source that are not given here.

Experiments:
PRV = settings: eluate with 45% PG
BVDV = settings: 45% (v/v) PG eluate, 20°C
TGEV = settings: 45% (v/v) PG eluate, 20°C
[1] = T = 6 h (+SD) (Standard titration)
[2] = BVDV Run 1, T = 0 min Load Sample, Standard titration
[3] = BVDV Run 1, T = 5 min, Standard titration
[4] = BVDV Run 1, T = 15 min, Standard titration
[5] = BVDV Run 1, T = 60 min, Standard titration
[6] = BVDV Run 1, T = 180 min, Standard titration
[7] = BVDV Run 1, T = 360 min, Standard titration
[8] = BVDV Run 2, T = 0 min Load Sample, Standard titration
[9] = BVDV Run 2, T = 5 min, Standard titration
[10] = BVDV Run 2, T = 15 min, Standard titration
[11] = BVDV Run 2, T = 60 min, Standard titration
[12] = BVDV Run 2, T = 180 min, Standard titration
[13] = TGEV Run 1, T = 0 min Load Sample, Standard titration
[14] = TGEV Run 1, T = 5 min, Standard titration
[15] = TGEV Run 1, T = 15 min, Standard titration
[16] = TGEV Run 1, T = 60 min, Standard titration
[17] = TGEV Run 1, T = 180 min, Standard titration
[18] = TGEV Run 1, T = 360 min, Standard titration
[19] = TGEV Run 2, T = 0 min Load Sample, Standard titration
[20] = TGEV Run 2, T = 5 min, Standard titration
[21] = TGEV Run 2, T = 15 min, Standard titration
[22] = TGEV Run 2, T = 60 min, Standard titration
[23] = TGEV Run 2, T = 180 min, 1LVP (96 wells)
[24] = TGEV Run 2, T = 360 min, 1 LVP (96 wells)

## propane-1,2-diol [PG]
PRV; Control T = 0 h (w/o SD)
  Titer: 2.17 ± 0.30 TCID50/ml
  Viral Load: 4.47 ± 0.30 log10
PRV; Control T = 6 h (w/o SD)
  Titer: ≤0.78* TCID50/ml
  Viral Load: ≤3.08 log10
PRV; T = 0 h (+SD)
  Titer: ≤1.48* TCID50/ml
  Viral Load: ≤3.78 log10
PRV; T = 1 h (+SD)
  Titer: ≤1.48* TCID50/ml
  Viral Load: ≤3.78 log10
PRV; T = 3 h (+SD)
  Titer: ≤1.48* TCID50/ml
  Viral Load: ≤3.78 log10
PRV; [1]
  Titer: ≤1.48* TCID50/ml
  Viral Load: ≤3.78 log10
BVDV; [2]
  Clearance Factor: 0.43 log
  Log10TICD50 (total viral load): 5.85 Log10TICD50
  Titre: 3.12 log10TCID50/ml
BVDV; [3]
  Clearance Factor: 1.65 log
  Log10TICD50 (total viral load): 4.63 Log10TICD50
  Titre: 1.9 log10TCID50/ml
BVDV; BVDV Run 1, T = 5 min vs T0, Standard titration
  Reduction Factor: 1.22 log
BVDV; [4]
  Clearance Factor: 1.3 log
  Log10TICD50 (total viral load): 4.98 Log10TICD50
  Titre: 2.25 log10TCID50/ml
BVDV; BVDV Run 1, T = 15 min vs T0, Standard titration
  Reduction Factor: 0.87 log
BVDV; [5]
  Clearance Factor: 1.3 log
  Log10TICD50 (total viral load): 4.98 Log10TICD50
  Titre: 2.25 log10TCID50/ml
BVDV; BVDV Run 1, T = 60 min vs T0, Standard titration
  Reduction Factor: 0.87 log
BVDV; [6]
  Clearance Factor: 1.3 log
  Log10TICD50 (total viral load): 4.98 Log10TICD50
  Titre: 2.25 log10TCID50/ml
BVDV; BVDV Run 1, T = 180 min vs T0, Standard titration
  Reduction Factor: 0.87 log
BVDV; [7]
  Clearance Factor: 2.75 log
  Log10TICD50 (total viral load): 3.53 Log10TICD50
  Titre: 0.8 log10TCID50/ml
BVDV; BVDV Run 1, T = 360 min vs T0, Standard titration
  Reduction Factor: >4.32 log
BVDV; [8]
  Clearance Factor: 0.44 log
  Log10TICD50 (total viral load): 5.76 Log10TICD50
  Titre: 3.03 log10TCID50/ml
BVDV; [9]
  Clearance Factor: 1.88 log
  Log10TICD50 (total viral load): 4.32 Log10TICD50
  Titre: 1.59 log10TCID50/ml
BVDV; BVDV Run 2, T = 5 min vs T0, Standard titration
  Reduction Factor: 1.44 log
BVDV; [10]
  Clearance Factor: 2.15 log
  Log10TICD50 (total viral load): 4.05 Log10TICD50
  Titre: 1.32 log10TCID50/ml
BVDV; BVDV Run 2, T = 15 min vs T0, Standard titration
  Reduction Factor: 1.71 log
BVDV; [11]
  Clearance Factor: 1.88 log
  Log10TICD50 (total viral load): 4.32 Log10TICD50
  Titre: 1.59 log10TCID50/ml
BVDV; BVDV Run 2, T = 60 min vs T0, Standard titration
  Reduction Factor: 1.44 log
BVDV; [12]
  Clearance Factor: >2.67 log
  Log10TICD50 (total viral load): <3.53 Log10TICD50
  Titre: <0.8 log10TCID50/ml
BVDV; BVDV Run 2, T = 180 min vs T0, Standard titration
  Reduction Factor: >2.23 log
BVDV; BVDV Run 2, T = 360 min, 1 LVP
  Clearance Factor: >3.59 log
  Log10TICD50 (total viral load): <2.61 Log10TICD50
  Titre: <−0.12 log10TCID50/ml
BVDV; BVDV Run 2, T = 360 min vs T0, 1 LVP
  Reduction Factor: >3.15 log
TGEV; [13]
  Clearance Factor: 0.07 log
  Log10TICD50 (total viral load): 7.38 Log10TICD50
  Titre: 5.12 log10TCID50/ml
TGEV; [14]
  Clearance Factor: 1.24 log
  Log10TICD50 (total viral load): 6.21 Log10TICD50
  Titre: 3.95 log10TCID50/ml
TGEV; TGEV Run 1, T = 5 min vs T0, Standard titration
  Reduction Factor: 1.17 log
TGEV; [15]
  Clearance Factor: 2.41 log
  Log10TICD50 (total viral load): 5.04 Log10TICD50
  Titre: 2.78 log10TCID50/ml
TGEV; TGEV Run 1, T = 15 min vs T0, Standard titration
  Reduction Factor: 2.34 log
TGEV; [16]
  Clearance Factor: 3.87 log
  Log10TICD50 (total viral load): 3.58 Log10TICD50
  Titre: 1.32 log10TCID50/ml
TGEV; TGEV Run 1, T = 60 min vs T0, Standard titration
  Reduction Factor: 3.8 log
TGEV; [17]
  Clearance Factor: 4.39 log
  Log10TICD50 (total viral load): 3.06 Log10TICD50
  Titre: 0.8 log10TCID50/ml
TGEV; TGEV Run 1, T = 180 min vs T0, Standard titration
  Reduction Factor: 4.32 log
TGEV; [18]
  Clearance Factor: >4.39 log
  Log10TICD50 (total viral load): <3.06 Log10TICD50
  Titre: <0.8 log10TCID50/ml
TGEV; TGEV Run 1, T = 360 min vs T0, Standard titration
  Reduction Factor: >4.32 log
TGEV; [19]
  Clearance Factor: 0.08 log
  Log10TICD50 (total viral load): 7.54 Log10TICD50
  Titre: 5.28 log10TCID50/ml
TGEV; [20]
  Clearance Factor: 1.08 log
  Log10TICD50 (total viral load): 6.54 Log10TICD50
  Titre: 4.28 log10TCID50/ml
TGEV; TGEV Run 2, T = 5 min vs T0, Standard titration
  Reduction Factor: 1 log
TGEV; [21]
  Clearance Factor: 2.16 log
  Log10TICD50 (total viral load): 5.46 Log10TICD50
  Titre: 3.2 log10TCID50/ml
TGEV; TGEV Run 2, T = 15 min vs T0, Standard titration
  Reduction Factor: 2.08 log
TGEV; [22]
  Clearance Factor: 4.56 log
  Log10TICD50 (total viral load): 3.06 Log10TICD50
  Titre: 0.8 log10TCID50/ml
TGEV; TGEV Run 2, T = 60 min vs T0, Standard titration
  Reduction Factor: 4.48 log
TGEV; [23]
  Clearance Factor: 5.48 log
  Log10TICD50 (total viral load): 2.14 Log10TICD50
  Titre: −0.12 log10TCID50/ml
TGEV; TGEV Run 2, T = 180 min vs T0, 1LVP (96 wells)
  Reduction Factor: 5.4 log
TGEV; [24]
  Clearance Factor: >5.48 log
  Log10TICD50 (total viral load): <2.14 Log10TICD50
  Titre: <−0.12 log10TCID50/ml
TGEV; TGEV Run 2, T = 360 min vs T0, 1 LVP (96 wells)
  Reduction Factor: >5.40 log
